Values joined by “and” are separate entries in the source; they are usually repeats but may differ in a detail not shown here. Equal entries are not always repeated.
Target: T1, Gal4-HNF4α (human HNF4α LBD) (Homo sapiens, UniProt P41235)
T1 construct: uniprot entry: P41235-1, residues 142-377; expressed in transfected cells; host or cells: HEK293T
T1 sequence (P41235 142-377): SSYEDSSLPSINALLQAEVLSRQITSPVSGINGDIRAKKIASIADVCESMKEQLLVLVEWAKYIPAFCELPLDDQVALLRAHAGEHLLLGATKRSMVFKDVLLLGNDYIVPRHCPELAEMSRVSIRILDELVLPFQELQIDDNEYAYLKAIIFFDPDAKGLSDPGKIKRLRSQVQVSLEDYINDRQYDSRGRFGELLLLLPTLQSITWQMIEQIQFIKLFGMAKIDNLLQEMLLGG
Test: Hybrid Gal4-HNF4α reporter gene assay in transiently transfected HEK293T cells
Type: cell-based
Settings: Table S1, primary screening, 50 µM

Row | SMILES | HNF4a-screening_activity_(mean_of_n=2)
1 | CC(C)C1NCCc2c1[nH]c1ccccc21 (centres unmarked) [Prestw-Frag-1264, CC(C)C1NCCc2c1[nH]c1ccccc21] | 1.008
2 | NC1=NCCN1 [Prestw-Frag-1268, NC1=NCCN1] | 1.024
3 | COc1cc2c(cc1OC)C(C)N(C)CC2 (centres unmarked) [Prestw-Frag-1273, COc1cc2CCN(C)C(C)c2cc1OC] | 1.056 and 0.9179
4 | COc1cc2c(cc1OC)CN(C)CC2 [Prestw-Frag-1275, COc1cc2CCN(C)Cc2cc1OC] | 0.9717 and 0.8575
5 | COc1cc2c(cc1OC)CNCC2 [Prestw-Frag-1276, COc1cc2CCNCc2cc1OC] | 1.117
6 | OCc1cc2ccccc2[nH]1 [Prestw-Frag-1297, OCc1cc2ccccc2[nH]1] | 1.241
7 | CCc1cccc2c(CCO)c[nH]c12 [Prestw-Frag-1299, CCc1cccc2c(CCO)c[nH]c12] | 1.255
8 | OCCn1ccnc1 [Prestw-Frag-1303, OCCn1ccnc1] | 0.8061 and 1.219
9 | C[C@H]1NC(=O)NC1=O [Prestw-Frag-1311, C[C@H]1NC(=O)NC1=O] | 1.09
10 | COc1ccc(C(=O)O)cc1N1CCCC1 [Prestw-Frag-1313, COc1ccc(cc1N1CCCC1)C(O)=O] | 1.093
11 | O=C(O)c1ccccc1Nc1cccc(Cl)c1 [Prestw-Frag-1319, OC(=O)c1ccccc1Nc1cccc(Cl)c1] | 0.64
12 | Cc1cccc(Nc2ccccc2C(=O)O)c1 [Prestw-Frag-1320, Cc1cccc(Nc2ccccc2C(O)=O)c1] | 0.7946 and 1.022
13 | Nc1cccc(C(F)(F)F)c1 [Prestw-Frag-1322, Nc1cccc(c1)C(F)(F)F] | 0.9015
14 | Fc1ccc(C(c2ccc(F)cc2)N2CCNCC2)cc1 [Prestw-Frag-1323, Fc1ccc(cc1)C(N1CCNCC1)c1ccc(F)cc1] | 1.017 and 1.002
15 | CN1CCN(C(c2ccccc2)c2ccccc2)CC1 [Prestw-Frag-1325, CN1CCN(CC1)C(c1ccccc1)c1ccccc1] | 0.9831
16 | COc1ccccc1OCCCO [Prestw-Frag-1335, COc1ccccc1OCCCO] | 0.806 and 0.9658
17 | OCC(O)COc1ccccc1 (centres unmarked) [Prestw-Frag-1337, OCC(O)COc1ccccc1] | 0.9566
18 | COc1ccccc1OCCO [Prestw-Frag-1338, COc1ccccc1OCCO] | 0.8769 and 0.9665
19 | CCC(C(=O)OCCN(CC)CC)c1ccccc1 (centres unmarked) [Prestw-Frag-1343, CCC(C(=O)OCCN(CC)CC)c1ccccc1] | 0.9028 and 1.004
20 | CCN(CC)CCOc1ccccc1O [Prestw-Frag-1345, CCN(CC)CCOc1ccccc1O] | 0.7766 and 1.111
21 | OC(c1ccc(Cl)cc1)c1ccccn1 (centres unmarked) [Prestw-Frag-1346, OC(c1ccc(Cl)cc1)c1ccccn1] | 0.8912
22 | CCOC(=O)C1c2ccccc2Oc2ccccc21 [Prestw-Frag-1348, CCOC(=O)C1c2ccccc2Oc2ccccc12] | 0.8228
23 | CNC(=O)c1cnc(C)cn1 [Prestw-Frag-1350, CNC(=O)c1cnc(C)cn1] | 0.7205 and 0.8855
24 | CNCCc1c[nH]c2ccccc12 [Prestw-Frag-1356, CNCCc1c[nH]c2ccccc12] | 0.7184 and 0.9553
25 | COc1ccc(CNc2ncccn2)cc1 [Prestw-Frag-1358, COc1ccc(CNc2ncccn2)cc1] | 0.8945 and 1.199
26 | O=C1COc2ccccc21 [Prestw-Frag-1361, O=C1COc2ccccc12] | 1.58
27 | OC1(c2ccc(Cl)cc2)CCNCC1 [Prestw-Frag-1365, OC1(CCNCC1)c1ccc(Cl)cc1] | 0.8125
28 | CCCC(=O)c1ccc(F)cc1 [Prestw-Frag-1368, CCCC(=O)c1ccc(F)cc1] | 1.103
29 | COc1ccc2cc[nH]c2c1 [Prestw-Frag-1372, COc1ccc2cc[nH]c2c1] | 1.02

— PMC7660650, “Chemical Starting Matter for HNF4α Ligand Discovery and Chemogenomics” (International Journal of Molecular Sciences, 2020)
